Measured values: patent publication US20090247589A1, “Monocarboxylates for modifying macrophage function” (The Brigham and Women's Hospital, Inc., priority 2006, published 2009)

What was measured:
RAW 264.7 cells [1] = conditions: MTT assay
Method: (§1) The dose of nicotinic acid was 60-80 μmol/kg/day, corresponding to 500-1000 mg of nicotinic acid in a 70 kg human (depending on bioavailability).

cardiac graft = conditions: continuous infusion by osmotic minipumps for 4 weeks; 60-80 μmol/kg/day; outliers excluded
Method: as §1

RAW 264.7 cells [2] = conditions: LPS-stimulated RAW 264.7 cells; concomitant administration
RAW 264.7 cells [3] = assay: Proinflammatory cytokine production by RAW 264.7 cells stimulated with IFN-γ plus uric acid; type: cell-based, murine

SMILES	effect on cell proliferation (RAW 264.7 cells [1])	graft condition (histology) compared to saline-treated controls (cardiac graft)	production of IL-6 (RAW 264.7 cells [2])	production of TNF-α (RAW 264.7 cells [2])	abrogation of uric acid + IFN-γ stimulated production of proinflammatory cytokines such as TNF-α (RAW 264.7 cells [3]; concomitant administration)	production of proinflammatory cytokines such as TNF-α (stimulating effect) (RAW 264.7 cells [3]; uric acid together with other macrophage stimulators such as IFN-γ)
O=C(O)c1cccnc1 [nicotinic acid]	nor nicotinic acid have any significant effect	near normal grafts	significantly reduced	significantly reduced	largely abrogated	
O=c1[nH]c(=O)c2[nH]c(=O)[nH]c2[nH]1 [uric acid]						synergistically, further stimulating production
